Laboratory results reported in patent US20240246992A1, “MACROCYCLIC LRRK2 KINASE INHIBITORS” (LES LABORATOIRES SERVIER, priority 2021, published 2024).

What follows are compounds tested against human recombinant LRRK2 protein (Homo sapiens, UniProt Q5S007) (assay: LRRK2 kinase activity assay (ADP-Glo, LRRKtide peptide)). Conditions: human recombinant LRRK2 wt, LRRKtide peptide and ATP, 1 h at 37° C.
human recombinant LRRK2 protein, sequence (Q5S007 whole entry): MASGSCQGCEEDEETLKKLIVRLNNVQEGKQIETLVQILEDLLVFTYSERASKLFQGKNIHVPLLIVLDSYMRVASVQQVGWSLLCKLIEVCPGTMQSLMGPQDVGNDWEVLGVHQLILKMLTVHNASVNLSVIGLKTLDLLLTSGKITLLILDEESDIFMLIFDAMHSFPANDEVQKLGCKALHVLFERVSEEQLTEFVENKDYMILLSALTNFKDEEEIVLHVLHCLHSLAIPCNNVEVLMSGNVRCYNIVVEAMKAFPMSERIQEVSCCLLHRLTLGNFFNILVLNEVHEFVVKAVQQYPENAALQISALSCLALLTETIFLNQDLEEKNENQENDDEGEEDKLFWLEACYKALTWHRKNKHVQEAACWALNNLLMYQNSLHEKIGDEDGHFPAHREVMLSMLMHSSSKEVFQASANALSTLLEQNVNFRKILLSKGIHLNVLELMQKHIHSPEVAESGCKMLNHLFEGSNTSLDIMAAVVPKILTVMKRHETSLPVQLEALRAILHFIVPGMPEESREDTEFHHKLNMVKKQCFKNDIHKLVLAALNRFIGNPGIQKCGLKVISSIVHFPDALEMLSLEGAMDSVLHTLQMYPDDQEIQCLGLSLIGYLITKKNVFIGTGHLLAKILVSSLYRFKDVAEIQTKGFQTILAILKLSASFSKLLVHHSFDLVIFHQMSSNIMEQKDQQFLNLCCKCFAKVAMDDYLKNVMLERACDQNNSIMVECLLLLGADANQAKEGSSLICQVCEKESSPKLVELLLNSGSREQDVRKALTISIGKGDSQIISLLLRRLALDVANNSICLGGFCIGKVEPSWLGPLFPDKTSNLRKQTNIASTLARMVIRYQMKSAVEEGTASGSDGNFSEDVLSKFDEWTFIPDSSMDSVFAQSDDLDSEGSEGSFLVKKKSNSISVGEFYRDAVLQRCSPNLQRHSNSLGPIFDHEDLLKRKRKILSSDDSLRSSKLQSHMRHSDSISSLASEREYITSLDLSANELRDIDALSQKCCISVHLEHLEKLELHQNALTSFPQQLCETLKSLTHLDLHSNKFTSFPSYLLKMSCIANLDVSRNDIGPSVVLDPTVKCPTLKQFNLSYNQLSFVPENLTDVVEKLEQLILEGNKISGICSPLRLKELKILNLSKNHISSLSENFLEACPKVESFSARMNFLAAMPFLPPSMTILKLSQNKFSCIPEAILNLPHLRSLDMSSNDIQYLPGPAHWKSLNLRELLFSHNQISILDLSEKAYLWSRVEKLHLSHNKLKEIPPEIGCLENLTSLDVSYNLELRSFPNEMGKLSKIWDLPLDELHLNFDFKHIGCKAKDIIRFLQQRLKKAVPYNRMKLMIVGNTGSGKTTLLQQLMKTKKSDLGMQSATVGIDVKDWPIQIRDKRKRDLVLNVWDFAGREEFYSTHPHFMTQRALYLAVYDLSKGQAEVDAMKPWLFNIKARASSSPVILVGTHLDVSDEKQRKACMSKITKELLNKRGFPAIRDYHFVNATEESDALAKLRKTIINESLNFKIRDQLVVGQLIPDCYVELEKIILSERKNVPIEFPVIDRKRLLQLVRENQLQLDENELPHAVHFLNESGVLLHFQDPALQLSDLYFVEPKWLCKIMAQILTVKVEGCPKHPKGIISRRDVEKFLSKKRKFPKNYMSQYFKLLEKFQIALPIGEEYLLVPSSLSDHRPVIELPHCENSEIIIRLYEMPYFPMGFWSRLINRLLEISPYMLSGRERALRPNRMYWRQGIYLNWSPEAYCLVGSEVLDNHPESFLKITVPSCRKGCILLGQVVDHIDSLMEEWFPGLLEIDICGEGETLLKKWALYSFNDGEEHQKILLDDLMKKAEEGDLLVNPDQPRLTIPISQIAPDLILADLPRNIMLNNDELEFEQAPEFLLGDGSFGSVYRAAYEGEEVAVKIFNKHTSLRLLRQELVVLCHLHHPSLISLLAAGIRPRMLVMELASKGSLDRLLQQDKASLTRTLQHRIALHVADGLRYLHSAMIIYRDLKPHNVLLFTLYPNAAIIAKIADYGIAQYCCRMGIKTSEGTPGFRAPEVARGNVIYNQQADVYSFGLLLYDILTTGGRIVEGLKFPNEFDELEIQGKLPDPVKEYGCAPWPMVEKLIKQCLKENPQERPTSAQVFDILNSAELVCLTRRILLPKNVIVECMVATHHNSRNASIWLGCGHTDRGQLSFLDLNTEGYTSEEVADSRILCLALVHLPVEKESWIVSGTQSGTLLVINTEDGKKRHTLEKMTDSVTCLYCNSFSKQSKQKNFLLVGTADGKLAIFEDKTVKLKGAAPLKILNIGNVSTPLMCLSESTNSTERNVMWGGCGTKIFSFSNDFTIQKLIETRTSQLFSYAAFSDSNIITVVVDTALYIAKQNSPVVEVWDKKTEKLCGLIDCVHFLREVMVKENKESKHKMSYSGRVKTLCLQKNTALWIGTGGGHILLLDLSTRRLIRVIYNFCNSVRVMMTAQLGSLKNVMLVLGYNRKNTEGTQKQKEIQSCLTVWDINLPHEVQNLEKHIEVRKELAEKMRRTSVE
Format: biochemical
In short: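 ADP-Glo luminescence read-out of a peptide assay: compound, ATP and LRRKtide substrate combined with recombinant human LRRK2 and incubated at 37 °C for 1 h. Ten-point data, N=2, curve-fitted to IC50.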
Work on `C[C@@H]1COCCOCCn2cc(cn2)-c2n[nH]c3c(F)cc(cc23)O1` [Example 88, (13R)-17-fluoro-13-methyl-8,11,14-trioxa-4,5,19,20-tetraazatetracyclo [13.5.2.1^2,5.0^18,21]tricosa-1(20),2(23),3,15(22),16,18(21)-hexaene] yielded an IC50 of under 10 nM. `C[C@H]1COc2ccc3[nH]nc(c3c2)-c2cnn(c2)[C@@H](C)COCCO1` [Example 89, (6S,12S)-6,12-dimethyl-8,11,14-trioxa-4,5,19,20-tetraazatetracyclo [13.5.2.1^2,5.0^18,21]tricosa-1(20),2(23),3,15(22),16,18(21)-hexaene] gave an IC50 of under 10 nM. With `C[C@@H]1CCOCCCn2ncc(n2)-c2n[nH]c3ccc(cc23)O1` [Example 90, (12R)-12-methyl-9,13-dioxa-4,5,18,19,22-pentaazatetracyclo[12.5.2.1^2,5.0^17,20]docosa-1(19),2(22),3,14(21),15,17(20)-hexaene] the IC50 was under 10 nM. `CN1CCOCCOc2cc(cc(N3CCOCC3)c2)-c2n[nH]c3ccc(cc23)C1` [Example 91, 13-methyl-4-(morpholin-4-yl)-7,10-dioxa-13,19,20-triazatetracyclo [13.5.2.1^2,6.0^18,21]tricosa-1(20),2,4,6(23),15,17,21-heptaene] gave an IC50 of under 100 nM. `C[C@H]1CCOCCCn2ncc(n2)-c2n[nH]c3ccc(cc23)O1` [Example 92, (12S)-12-methyl-9,13-dioxa-4,5,18,19,22-pentaazatetracyclo[12.5.2.1^2,5.0^17,20]docosa-1(19),2(22),3,14(21),15,17(20)-hexaene] was tested, and the IC50 was under 10 nM. `C[C@@H]1COCCOC[C@H](C)n2cc(cn2)-c2n[nH]c3ccc(cc23)O1` [Example 93, (6S,13R)-6,13-dimethyl-8,11,14-trioxa-4,5,19,20-tetraazatetracyclo[13.5.2.1^2,5.0^18,21]tricosa-1(20),2(23),3,15(22),16,18(21)-hexaene] was tested, and the IC50 was under 100 nM. Work on `C[C@@H]1CCOCC[C@@H](C)n2ncc(n2)-c2n[nH]c3ccc(cc23)O1` [Example 94, (6R,12R)-6,12-dimethyl-9,13-dioxa-4,5,18,19,22-pentaazatetracyclo[12.5.2.1^2,5.0^17,20]docosa-1(19),2(22),3,14(21),15,17(20)-hexaene] yielded an IC50 of under 10 nM. Work on `COC1COCCOC[C@@H](C)Oc2ccc3[nH]nc(c3c2)-c2cnn1c2` (stereo partly drawn) [Example 95, (13R)-6-methoxy-13-methyl-8,11,14-trioxa-4,5,19,20-tetraazatetracyclo [13.5.2.1^2,5.0^18,21]tricosa-1(20),2(23),3,15(22),16,18(21)-hexaene] yielded an IC50 of under 100 nM. In the case of `c1nn2cc1-c1n[nH]c3cnc(cc13)OCCOCCOCC2` [Example 96, 8,11,14-trioxa-4,5,16,19,20-pentaazatetracyclo[13.5.2.1^2,5.0^18,21]tricosa-1(20),2(23),3,15(22),16,18(21)-hexaene], the IC50 is reported as under 100 nM. Compound `C[C@@H]1CCO[C@@H](C)CCn2cc(cn2)-c2n[nH]c3ccc(cc23)O1` [Example 97, (8S,12R)-8,12-dimethyl-9,13-dioxa-4,5,18,19-tetraaza tetracyclo[12.5.2.1^2,5.0^17,20]docosa-1(19),2(22),3,14(21),15,17(20)-hexaene] has an IC50 of under 10 nM. Work on `C[C@@H]1CCn2cc(cn2)-c2n[nH]c3ccc(cc23)O[C@H](C)CCO1` [Example 98, (8R,12R)-8,12-dimethyl-9,13-dioxa-4,5,18,19-tetraazatetracyclo[12.5.2.1^2,5.0^17,20]docosa-1(19),2(22),3,14(21),15,17(20)-hexaene] yielded an IC50 of under 10 nM. `C[C@@H]1OCCOCCn2cc(cn2)-c2n[nH]c3ccc(cc23)O[C@@H]1C` [Example 99, (12S,13R)-12,13-dimethyl-8,11,14-trioxa-4,5,19,20-tetraazatetracyclo[13.5.2.1^2,5.0^18,21]tricosa-1(20),2(23),3,15(22),16,18(21)-hexaene] showed an IC50 of under 10 nM. Work on `C[C@@H]1Oc2ccc3[nH]nc(c3c2)-c2cnn(c2)CCOCCO[C@@H]1C` [Example 100, (12R,13S)-12,13-dimethyl-8,11,14-trioxa-4,5,19,20-tetraazatetra cyclo[13.5.2.1^2,5.0^18,21]tricosa-1(20),2(23),3,15(22),16,18(21)-hexaene] yielded an IC50 of under 100 nM.
